Experimental data: patent US6524625B2, “Physiologically active extract obtained from indigo plant polygonum tinctorium” (Kabushiki Kaisha Hayashibara Seibutsu Kagaku Kenkyuto, priority 1998, dated 2003)
≈ marks a conversion by molar mass, not a printed value.

Assays:
[1] = system: Helicobacter pylori (NCTC 11638); assay: Antiseptic action: MIC, agar plate dilution method; assay type: cell-based
[2] = system: Bacillus cereus (IFO 3466); assay: Antiseptic action: MIC, agar plate dilution method; assay type: cell-based; settings: Bacillus cereus, IFO3466, read-out: Minimum inhibitory concentration
[3] = system: Pseudomonas aeruginosa (IFO 3453); assay: Antiseptic action: MIC, agar plate dilution method; assay type: cell-based; settings: Pseudomonas aeruginosa, IFO3453, read-out: Minimum inhibitory concentration
[4] = system: Staphylococcus aureus (ATCC 6538P); assay: Antiseptic action: MIC, agar plate dilution method; assay type: cell-based; settings: Staphylococcus aureus, ATCC6538P, read-out: Minimum inhibitory concentration
[5] = system: vesicular stomatitis virus (VSV); assay: microbe, parasite or virus in culture; assay type: cell-based; settings: L929, 24 h, read-out: 50% Growth inhibitory concentration
[6] = system: HGC-27 cells; assay: Antitumor action: growth inhibition, methylene blue staining; assay type: cell-based; settings: Homo sapiens, HGC-27, 48 h, read-out: 50% growth inhibitory concentration
Experimental: (§1) Solutions in each well were serially diluted with a fresh preparation of the same RPMI1640 medium (pH 7.2) as used in the above. […] Each cell suspension was distributed to a microplate in a volume of 50 μl/well and incubated at 37° C. for 48 hours in a 5 v/v % CO2 incubator. To each microplate, a 25 v/v % aqueous glutaraldehyde solution was added in a volume of 20 μl/well, and the microplate was allowed to stand for 15 min to fix the cells. Then, the cells adhered to the wells were washed with water, admixed with a 0.05 w/v % aqueous methylene blue solution in a volume of 100 μl/well, and further allowed to stand for 15 min to stain the cells. Thereafter, an excessive amount of the staining solution was removed from the wells by washing with water, and the cells were dried, admixed with 300 μl/well of 0.33 N hydrochloric acid, stirred sufficiently, and measured for absorption at a wavelength of 620 nm. In parallel, as a control, a system free of a test sample was provided and treated similarly as in the test samples. […]

[7] = system: HL-60 cells; assay: as above; assay type: cell-based; settings: Homo sapiens, HL-60, 48 h, read-out: 50% growth inhibitory concentration
Experimental: as §1

[8] = system: HLC-1 cells; assay: as above; assay type: cell-based; settings: Homo sapiens, 48 h, read-out: 50% growth inhibitory concentration
Experimental: as §1

[9] = system: HGC-27 cells; assay: Apoptosis controlling action, propidium iodide flow cytometry; assay type: cell-based, human; settings: HGC-27 cells (1 × 10^5 cells/ml)
Experimental: (§2) The solution was distributed to a microplate in one milliliter per well, and the solution in each well was diluted in series with a fresh preparation of the same medium as used in the above.
(§3) HL-60 cells, ATCC CCL-240, derived from a patient with acute promyelocytic leukemia; U-937 cells, ATCC CRL-1593.2, derived from a patient with human histiocytic lymphoma; HGC-27 cells, RCB0500, derived from a patient with gastric cancer; HLC-1 cells, RCB0083, derived from a patient with lung adenocarcinoma; and C6 cells, ATCC CCL-107, derived from rat glial tumor, were respectively suspended in RPMI1640 medium (pH 7.2) to give a cell density of 1×10^6 cells/ml or 2×10^5 cells/ml. To the microplate, containing a one milliliter dilution of 20, 10 or 5.0 μg/ml of Compound 1, was added one milliliter per well of either of the above cell suspensions and used for test systems. All the test systems were made duplex and respectively subjected to 24- and 48-hour incubations in a 5 v/v % CO2 incubator at 37° C. A system free of Compound 1 was provided and treated similarly as above and used for control.
(§4) According to the method by I. Nicoletti et al. in Journal of Immunological Methods, Vol. 139, pp. 271-279 (1991), the apoptosis-induced cells in the test systems and control were stained by propidium iodide and determined for the percentage of the stained cells to the total cells in such a manner that transferring each of the cultures to polypropylene tubes, centrifuging the tubes, removing the resulting supernatants, washing the cells' sediments with phosphate buffered saline containing 0.3 v/v % calf serum albumin, and further centrifuging the washed cells to remove supernatants. The newly formed sediments were respectively mixed with 50 μg/ml of propidium iodide commercialized by Sigma Chemical Company, St. Louis, Mo., USA, 0.1 w/v % sodium citrate, and0.1 w/v % “TRITON X-100”, a surfactant commercialized by Sigma Chemical Company, St. Louis, Mo., USA, in respective volumes of 1.5 ml to stain the cells by propidium iodide. The stained cells were stored at 4° C. in the dark overnight. The stained cells of each test system were analyzed on “EPICS PROFILE II”, a flow cytometry commercialized by Beckman Coulter, Inc., CA, USA. Based on the data the percentage of the stained cells to the total cells in each test system was measured for apoptosis occurrence.

[10] = system: HL-60 cells; assay: as above; assay type: cell-based, human; settings: HL-60 cells (5 × 10^5 cells/ml)
Experimental: as §2, §3, §4

[11] = system: HLC-1 cells; assay: as above; assay type: cell-based, human; settings: HLC-1 cells (1 × 10^5 cells/ml)
Experimental: as §2, §3, §4

[12] = system: U-937 cells; assay: as above; assay type: cell-based, human; settings: U-937 cells (5 × 10^5 cells/ml)
Experimental: as §2, §3, §4

[13] = Water-solubility (dissolving in refined water for the NBT test); assay type: physicochemical; settings: NBT evaluation impossible
Experimental: Then the formed formazan was quantified on spectro-chemical analysis. Either of the present physiologically active extracts was dissolved in a refined water to give an appropriate concentration, and the solutions were used for test samples. As a control it was provided by replacing the test samples with a refined water. The 50% inhibitory activity for the formation of formazan in the control was defined as a one unit activity of radical-entrapping action. Based of the definition, the radical-entrapping activity of one gram of each test sample was determined.
Particularly, the radical-entrapping action of the physiologically active substance of Experiment 1 and Compounds 5 and 6 of Experiment 2 was remarkable.

[14] = 48 hours, 2.5 μg/ml, control 1.5
[15] = 48 hours, 5.0 μg/ml, control 1.5
[16] = 48 hours, 10 μg/ml, control 1.5

O=C1c2ccccc2-n2c1nc1ccccc1c2=O [Compound 1, 6,12-dihydro-6,12-dioxoindolo[2,1-b]quinazoline]
MIC ([1]; Helicobacter pylori, NCTC11638, read-out: Minimum inhibitory concentration): 2.5 µg/mL (≈ 10.1 µM) | Inhibition of the growth of Helicobacter pylori (in words) ([1]; comment on Table 8): strongly inhibited the growth | MIC [2]: 39 µg/mL (≈ 157 µM) | MIC [3]: 39 µg/mL (≈ 157 µM) | MIC [4]: 39 µg/mL (≈ 157 µM) | IC50 [5]: 13 µg/mL (≈ 52.4 µM) | IC50 [6]: 1.5 µg/mL (≈ 6.04 µM) | IC50 [7]: 4.2 µg/mL (≈ 16.9 µM) | IC50 [8]: 2.2 µg/mL (≈ 8.86 µM) | Apoptosis occurrence ([9]; 24 hours, 2.5 μg/ml, control 1.5): 1.9% | Apoptosis occurrence ([9]; 24 hours, 5.0 μg/ml, control 1.5): 1.7% | Apoptosis occurrence ([9]; 24 hours, 10 μg/ml, control 1.5): 3.5% | Apoptosis occurrence ([9]; 48 hours, 2.5 μg/ml, control 1.4): 2.2% | Apoptosis occurrence ([9]; 48 hours, 5.0 μg/ml, control 1.4): 4.1% | Apoptosis occurrence ([9]; 48 hours, 10 μg/ml, control 1.4): 14.1% | Apoptosis occurrence ([10]; 24 hours, 2.5 μg/ml, control 0.7): 0.7% | Apoptosis occurrence ([10]; 24 hours, 5.0 μg/ml, control 0.7): 1.7% | Apoptosis occurrence ([10]; 24 hours, 10 μg/ml, control 0.7): 11.8% | Apoptosis occurrence [10, 14]: 1.3% | Apoptosis occurrence [10, 15]: 4.2% | Apoptosis occurrence [10, 16]: 22.6% | Apoptosis occurrence ([11]; 24 hours, 2.5 μg/ml, control 2.7): 3.7% | Apoptosis occurrence ([11]; 24 hours, 5.0 μg/ml, control 2.7): 4.2% | Apoptosis occurrence ([11]; 24 hours, 10 μg/ml, control 2.7): 8.1% | Apoptosis occurrence [11, 14]: 5.8% | Apoptosis occurrence [11, 15]: 7.3% | Apoptosis occurrence [11, 16]: 21.8% | Apoptosis occurrence ([12]; 24 hours, 2.5 μg/ml, control 3.2): 3.2% | Apoptosis occurrence ([12]; 24 hours, 5.0 μg/ml, control 3.2): 5.0% | Apoptosis occurrence ([12]; 24 hours, 10 μg/ml, control 3.2): 6.8% | Apoptosis occurrence ([12]; 48 hours, 2.5 μg/ml, control 4.5): 5.2% | Apoptosis occurrence ([12]; 48 hours, 5.0 μg/ml, control 4.5): 11.7% | Apoptosis occurrence ([12]; 48 hours, 10 μg/ml, control 4.5): 66.9% | Water-solubility [13]: insufficient water-solubility
